According to patent US20240228458A1, “PYRIMIDINE DERIVATIVE HAVING PROTEIN KINASE INHIBITORY ACTIVITY, AND THERAPEUTIC PHARMACEUTICAL COMPOSITION COMPRISING SAME” (THERAPEX CO., LTD., priority 2021, published 2024):

Tests used:
Type in all cases: cell-based
[1] = test system: Ba/F3 cells expressing EGFR-wt; assay: Growth inhibition (GI50) of Ba/F3 cells expressing EGFR-wt, Celltiter glo; conditions: Mus musculus, BaF3, 72 h
Summary of the method: (§1)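 Steps: plate engineered Ba/F3 cells (100,000 cells/ml); wait 4 h; add compound as a 4-fold, 10-point dilution series made from 2 mM stock, DMSO 0.5%; incubate 72 h at 37 °C under 5% CO2; measure ATP-based viability with CellTiter-Glo; calculate GI50.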

[2] = test system: Ba/F3 cells expressing del19/T790M/C797S (EGFR-DTC); assay: Growth inhibition (GI50) of Ba/F3 cells expressing del19/T790M/C797S (EGFR-DTC), Celltiter glo; conditions: Mus musculus, BaF3, 72 h
Summary of the method: as §1

[3] = test system: Ba/F3 cells expressing L858R/T790M/C797S (EGFR-LTC); assay: Growth inhibition (GI50) of Ba/F3 cells expressing L858R/T790M/C797S (EGFR-LTC), Celltiter glo; conditions: Mus musculus, BaF3, 72 h
Summary of the method: as §1

[4] = test system: Ba/F3 cells expressing del19/T790M (EGFR-DT); assay: Growth inhibition (GI50) of Ba/F3 cells expressing del19/T790M (EGFR-DT), Celltiter glo; conditions: Mus musculus, BaF3, 72 h
Summary of the method: as §1

[5] = test system: Ba/F3 cells expressing L858R/T790M (EGFR-LT); assay: Growth inhibition (GI50) of Ba/F3 cells expressing L858R/T790M (EGFR-LT), Celltiter glo; conditions: Mus musculus, BaF3, 72 h
Summary of the method: as §1

[6] = test system: parental Ba/F3 cell line; assay: Growth inhibition (GI50) of the parental Ba/F3 cell line (not introduced with EGFR variants), Celltiter glo; conditions: Mus musculus, BaF3, 72 h, parental Ba/F3 cells
Summary of the method: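 Viable cell count by CellTiter-Glo after 72 h at 37 °C gave GI50 values (μM, 50% growth inhibition). Cells lacking EGFR variants were seeded at 100,000 cells/ml and dosed 4 h later with 4-fold serial dilutions from a 2 mM stock, 0.5% DMSO.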

COc1cc(N2CCC(N3CCCN(C)CC3)CC2)c(Cl)cc1Nc1ncc(Br)c(Nc2cc3c(cc2NS(C)(=O)=O)CCO3)n1 [Example 189, N-(6-((5-bromo-2-((5-chloro-2-methoxy-4-(4-(4-methyl-1,4-diazepan-1-yl)piperidin-1-yl)phenyl)amino)pyrimidin-4-yl)amino)-2,3-dihydrobenzofuran-5-yl)methanesulfonamide]
GI50 [1]: 25 to 100 nM
GI50 [2]: 1 to 25 nM
GI50 [3]: 1 to 25 nM
GI50 [4]: 1 to 25 nM
GI50 [5]: 25 to 100 nM
GI50 [6]: 500 to 2000 nM

CCc1cc(Nc2ncc(Cl)c(Nc3ccc4nccnc4c3P(C)(C)=O)n2)c(OC)cc1N1CCC(N2CCN(C)CC2)CC1 [Example 190, (6-((5-chloro-2-((5-ethyl-2-methoxy-4-(4-(4-methylpiperazin-1-yl)piperidin-1-yl)phenyl)amino)pyrimidin-4-yl)amino)quinoxalin-5-yl)dimethylphosphine oxide]
GI50 [1]: 100 to 500 nM
GI50 [2]: 25 to 100 nM
GI50 [3]: 25 to 100 nM
GI50 [4]: 1 to 25 nM
GI50 [5]: 1 to 25 nM
GI50 [6]: 100 to 500 nM

CCc1cc(Nc2ncc(Br)c(Nc3cc(Cl)ccc3NS(C)(=O)=O)n2)c(OC)cc1N1CCC(N2CCN(C)CC2)CC1 [Example 191, N-(2-((5-bromo-2-((5-ethyl-2-methoxy-4-(4-(4-methylpiperazin-1-yl)piperidin-1-yl)phenyl)amino)pyrimidin-4-yl)amino)-4-chlorophenyl)methanesulfonamide]
GI50 [1]: 100 to 500 nM
GI50 [2]: 1 to 25 nM
GI50 [3]: 1 to 25 nM
GI50 [4]: 1 to 25 nM
GI50 [5]: 1 to 25 nM
GI50 [6]: 2000 to 10000 nM

CCc1cc(Nc2ncc(Br)c(Nc3ccc4nccnc4c3P(C)(C)=O)n2)c(OC)cc1N1CCC(N2CCN(C)CC2)CC1 [Example 192, (6-((5-bromo-2-((5-ethyl-2-methoxy-4-(4-(4-methylpiperazin-1-yl)piperidin-1-yl)phenyl)amino)pyrimidin-4-yl)amino)quinoxalin-5-yl)dimethylphosphine oxide]
GI50 [1]: 25 to 100 nM
GI50 [2]: 1 to 25 nM
GI50 [3]: 1 to 25 nM
GI50 [4]: 1 to 25 nM
GI50 [5]: 1 to 25 nM
GI50 [6]: 100 to 500 nM

Cc1cc(Nc2ncc(Br)c(Nc3ccc4nccnc4c3P(C)(C)=O)n2)c(Cl)cc1N1CCC(N2CCN(C)CC2)CC1 [Example 193, (6-((5-bromo-2-((2-chloro-5-methyl-4-(4-(4-methylpiperazin-1-yl)piperidin-1-yl)phenyl)amino)pyrimidin-4-yl)amino)quinoxalin-5-yl)dimethylphosphine oxide]
GI50 [1]: 100 to 500 nM
GI50 [2]: 1 to 25 nM
GI50 [3]: 25 to 100 nM
GI50 [4]: 100 to 500 nM
GI50 [5]: 100 to 500 nM
GI50 [6]: 500 to 2000 nM

COc1cc(N2CCC(N3CCN(C)CC3)CC2)c(Cl)cc1Nc1ncc(Br)c(Nc2ccc3nccnc3c2P(C)(C)=O)n1 [Example 194, (6-((5-bromo-2-((5-chloro-2-methoxy-4-(4-(4-methylpiperazin-1-yl)piperidin-1-yl)phenyl)amino)pyrimidin-4-yl)amino)quinoxalin-5-yl)dimethylphosphine oxide]
GI50 [1]: 100 to 500 nM
GI50 [2]: 25 to 100 nM
GI50 [3]: 25 to 100 nM
GI50 [4]: 25 to 100 nM
GI50 [5]: 100 to 500 nM
GI50 [6]: 100 to 500 nM

COc1cc(N2CCC(N3CCCC(N(C)C)C3)CC2)c(C)cc1Nc1ncc(Br)c(Nc2cc3c(cc2NS(C)(=O)=O)CCO3)n1 (stereo not drawn) [Example 196, N-(6-((5-bromo-2-((4-(3-(dimethylamino)-[1,4′-bipiperidin]-1′-yl)-2-methoxy-5-methylphenyl)amino)pyrimidin-4-yl)amino)-2,3-dihydrobenzofuran-5-yl)methanesulfonamide]
GI50 [1]: 500 to 2000 nM
GI50 [2]: 1 to 25 nM
GI50 [3]: 100 to 500 nM
GI50 [4]: 1 to 25 nM
GI50 [5]: 25 to 100 nM
GI50 [6]: 2000 to 10000 nM

Cc1cc(Nc2ncc(Cl)c(Nc3cc4c(cc3NS(C)(=O)=O)CCO4)n2)c(Cl)cc1N1CCC(N2CCCC(N(C)C)C2)CC1 (stereo not drawn) [Example 197, N-(6-((5-chloro-2-((2-chloro-4-(3-(dimethylamino)-[1,4′-bipiperidin]-1′-yl)-5-methylphenyl)amino)pyrimidin-4-yl)amino)-2,3-dihydrobenzofuran-5-yl)methanesulfonamide]
GI50 [1]: 100 to 500 nM
GI50 [2]: 25 to 100 nM
GI50 [3]: 100 to 500 nM
GI50 [4]: 1 to 25 nM
GI50 [5]: 100 to 500 nM
GI50 [6]: 2000 to 10000 nM

COc1ccc(NS(C)(=O)=O)c(Nc2nc(Nc3cc(C)c(N4CCC(N5CCN(C)CC5)CC4)cc3OC)ncc2Cl)c1 [Example 199, N-(2-((5-chloro-2-((2-methoxy-5-methyl-4-(4-(4-methylpiperazin-1-yl)piperidin-1-yl)phenyl)amino)pyrimidin-4-yl)amino)-4-methoxyphenyl)methanesulfonamide]
GI50 [1]: 100 to 500 nM
GI50 [2]: 1 to 25 nM
GI50 [3]: 1 to 25 nM
GI50 [4]: 1 to 25 nM
GI50 [5]: 25 to 100 nM
GI50 [6]: 100 to 500 nM

COc1ccc(NS(C)(=O)=O)c(Nc2nc(Nc3cc(C)c(N4CCC(N5CCN(C)CC5)CC4)cc3Cl)ncc2Cl)c1 [Example 200, N-(2-((5-chloro-2-((2-chloro-5-methyl-4-(4-(4-methylpiperazin-1-yl)piperidin-1-yl)phenyl)amino)pyrimidin-4-yl)amino)-4-methoxyphenyl)methanesulfonamide]
GI50 [1]: 100 to 500 nM
GI50 [2]: 25 to 100 nM
GI50 [3]: 25 to 100 nM
GI50 [4]: 1 to 25 nM
GI50 [5]: 25 to 100 nM
GI50 [6]: 100 to 500 nM

COc1ccc(NS(C)(=O)=O)c(Nc2nc(Nc3cc(Cl)c(N4CCC(N5CCN(C)CC5)CC4)cc3OC)ncc2Cl)c1 [Example 201, N-(2-((5-chloro-2-((5-chloro-2-methoxy-4-(4-(4-methylpiperazin-1-yl)piperidin-1-yl)phenyl)amino)pyrimidin-4-yl)amino)-4-methoxyphenyl)methanesulfonamide]
GI50 [1]: 1 to 25 nM
GI50 [2]: 1 to 25 nM
GI50 [3]: 1 to 25 nM
GI50 [4]: 1 to 25 nM
GI50 [5]: 1 to 25 nM
GI50 [6]: 25 to 100 nM

COc1ccc(NS(C)(=O)=O)c(Nc2nc(Nc3cc(Cl)c(N4CCC(N5CCN(C)CC5)CC4)cc3Cl)ncc2Cl)c1 [Example 202, N-(2-((5-chloro-2-((2,5-dichloro-4-(4-(4-methylpiperazin-1-yl)piperidin-1-yl)phenyl)amino)pyrimidin-4-yl)amino)-4-methoxyphenyl)methanesulfonamide]
GI50 [1]: 100 to 500 nM
GI50 [2]: 25 to 100 nM
GI50 [3]: 25 to 100 nM
GI50 [4]: 1 to 25 nM
GI50 [5]: 25 to 100 nM
GI50 [6]: 100 to 500 nM

CCc1cc(Nc2ncc(Cl)c(Nc3cc(OC)ccc3NS(C)(=O)=O)n2)c(OC)cc1N1CCC(N2CCN(C)CC2)CC1 [Example 203, N-(2-((5-chloro-2-((5-ethyl-2-methoxy-4-(4-(4-methylpiperazin-1-yl)piperidin-1-yl)phenyl)amino)pyrimidin-4-yl)amino)-4-methoxyphenyl)methanesulfonamide]
GI50 [1]: 500 to 2000 nM
GI50 [2]: 25 to 100 nM
GI50 [3]: 25 to 100 nM
GI50 [4]: 1 to 25 nM
GI50 [5]: 100 to 500 nM
GI50 [6]: 2000 to 10000 nM

COc1ccc(NS(C)(=O)=O)c(Nc2nc(Nc3cc(C)c(N4CCC(N5CCCN(C)CC5)CC4)cc3OC)ncc2Cl)c1 [Example 204, N-(2-((5-chloro-2-((2-methoxy-5-methyl-4-(4-(4-methyl-1,4-diazepan-1-yl)piperidin-1-yl)phenyl)amino)pyrimidin-4-yl)amino)-4-methoxyphenyl)methanesulfonamide]
GI50 [1]: 25 to 100 nM
GI50 [2]: 1 to 25 nM
GI50 [3]: 25 to 100 nM
GI50 [4]: 1 to 25 nM
GI50 [5]: 25 to 100 nM
GI50 [6]: 2000 to 10000 nM

CN1CCN(C2CCN(c3cc(Cl)c(Nc4ncc(Cl)c(Nc5cc6c(cc5NS(C)(=O)=O)CCO6)n4)cc3Cl)CC2)CC1 [Example 205, N-(6-((5-chloro-2-((2,5-dichloro-4-(4-(4-methylpiperazin-1-yl)piperidin-1-yl)phenyl)amino)pyrimidin-4-yl)amino)-2,3-dihydrobenzofuran-5-yl)methanesulfonamide]
GI50 [1]: 25 to 100 nM
GI50 [2]: 1 to 25 nM
GI50 [3]: 1 to 25 nM
GI50 [4]: 1 to 25 nM
GI50 [5]: 1 to 25 nM
GI50 [6]: 2000 to 10000 nM

CCc1cc(Nc2ncc(Cl)c(Nc3cc4c(cc3NS(C)(=O)=O)CCO4)n2)c(OC)cc1N1CCC(N2CCN(C)CC2)CC1 [Example 206, N-(6-((5-chloro-2-((5-ethyl-2-methoxy-4-(4-(4-methylpiperazin-1-yl)piperidin-1-yl)phenyl)amino)pyrimidin-4-yl)amino)-2,3-dihydrobenzofuran-5-yl)methanesulfonamide]
GI50 [1]: 100 to 500 nM
GI50 [2]: 1 to 25 nM
GI50 [3]: 25 to 100 nM
GI50 [4]: 1 to 25 nM
GI50 [5]: 1 to 25 nM
GI50 [6]: 2000 to 10000 nM

COc1cc(N2CCC(N3CCNCC3)CC2)c(C)cc1Nc1ncc(Cl)c(Nc2cc3c(cc2NS(C)(=O)=O)CCO3)n1 [Example 207, N-(6-((5-chloro-2-((2-methoxy-5-methyl-4-(4-(piperazin-1-yl)piperidin-1-yl)phenyl)amino)pyrimidin-4-yl)amino)-2,3-dihydrobenzofuran-5-yl)methanesulfonamide]
GI50 [1]: 100 to 500 nM
GI50 [2]: 25 to 100 nM
GI50 [3]: 25 to 100 nM
GI50 [4]: 25 to 100 nM
GI50 [5]: 1 to 25 nM
GI50 [6]: 2000 to 10000 nM
